In patent publication US20170304260A1, “ALTRENOGEST FORMULATION AND USES THEREOF FOR ESTRUS SYNCHRONISATION IN ANIMALS” (priority 2014, published 2017):

Experiment: Storage stability of microcapsule emulsion / powder (Method 1, spray-drying)
Type: physicochemical
Details: liquid and dry form of the microcapsule emulsion, ambient temperature
Method: Method 1: Dry Microcapsule Obtained by Atomisation (Spray-Drying)
The emulsion comprising the ingredients above was pre-homogenized with a Polytron™ homogenizer for 3 min at 9000 rpm, then homogenized with a two-stage Avestin™ homogenizer (3*5000 psi+1*500 psi).
Spray drying was performed under the following conditions: spray dryer BUCHI® Mini Spray Drier B-191 with a 2 mm nozzle diameter, air pressure of 60 psi. The emulsion was fed into the main chamber through peristatic pump, feed flow rate was 400 ml/h, inlet air temperature was 160° C. and outlet temperature was 65° C. The dried microcapsules were collected in a cyclone.
Particle size distribution of the final emulsion was less than 1 micron and the powder obtained by atomisation or freeze drying had good rehydration properties, low surface oil and low oxidation during the powder storage. Furthermore, the emulsion in liquid form containing 1.5% sodium caseinate and 15% sunflower oil was physically stable when pasteurized with no preservation agents added to it. Maltodextrin was used as a “wall material” to permit further drying of the emulsion. Additionally, the retention of Altrenogest was well preserved in both the liquid and dry form for a period of at least 5 months at ambient temperature.

period over which retention of Altrenogest was well preserved: at least 5 months
Structure (SMILES): C=CC[C@]1(O)CC[C@H]2[C@@H]3CCC4=CC(=O)CCC4=C3C=C[C@@]21C [Altrenogest]
